Assay results published in patent US10682371B2, “Small molecule conjugates specifically activated in tumor microenvironment for targeting and use thereof” (priority 2014, dated 2020).
Where two headings read alike, the source gives them in different places.

Key:
[1] = test system: tumor CD8+ T cells; assay type: in vivo, C57 mice
Method in brief: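 Flow cytometric ratio of CD8⁺ to CD45⁺ cells in dissociated tumour. Cell suspensions were labelled with CD45-PE and CD8-FITC for 1 h at room temperature, then washed twice in phosphate buffer with 1% fetal bovine serum.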

[2] = test system: D121 lung tumor cells; assay type: in vivo, C57 mice; settings: for Effect together with PDL1-antibody in promoting immunization and treatment, in words: combination with PDL1-antibody; for Treatment effects on C57 mice, in words: compared to the control group and the other treatment groups
Method in brief: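 Endpoint is tumor inhibition rate from tumor size (mm^3) after weekly drug treatment for 4 weeks, begun once s.c. tumors from 10^6 live D121 cells reached 0.3-0.4 cm. Before challenge, C57 mice received three i.p. doses of 5×10^5 irradiated D121 cells, two weeks apart, or saline.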

[3] = test system: Human non-small cell lung cancer A549 tumor tissue homogenate; assay type: biochemical; settings: for Activation ratio (%) in homogenates from different tumor tissues: Human non-small cell lung cancer A549, 1 mg/ml
Protocol: (§1) At 37 °C, sample compounds were added into 100 μg acidized tumor tissue homogenates (pH6.0) in a concentration of 1 mg/ml.
(§2) […], sample compounds were added into 100 μg acidized tumor tissue homogenates (pH6.0) in a concentration of 1 mg/ml.
(§3) At 37 °C, sample compounds were added into 100 μg acidized tumor tissue homogenates in a concentration of 1 mg/ml.
(§4) In the experiments, at 37 °C, compounds were added into proteases in 100 μg acidized tumor tissue homogenates in a concentration of 1 mg/ml. […] Meanwhile certain compounds produced in the screening were compared and their activation efficiency in same tissue was analyzed.
(§5) At 37° C., compounds were added into proteases in 100 μg acidized tumor tissue homogenates in a concentration of 1 mg/ml.

[4] = test system: Human prostate cancer PC-3 tumor tissue homogenate; assay type: biochemical; settings: for Activation ratio (%) in homogenates from different tumor tissues: Human prostate cancer PC-3, 1 mg/ml
Protocol: as §1, §2, §3, §4, §5

[5] = test system: Human chronic leukemia K562 tumor tissue homogenate; assay type: biochemical; settings: for Activation ratio (%) in homogenates from different tumor tissues: Human chronic leukemia K562, 1 mg/ml
Protocol: as §1, §2, §3, §4, §5

[6] = test system: Human pancreatic cancer Panc-1 tumor tissue homogenate; assay type: biochemical; settings: for Activation ratio (%) in homogenates from different tumor tissues: Human pancreatic cancer Panc-1, 1 mg/ml
Protocol: as §1, §2, §3, §4, §5

[7] = test system: Human colon cancer HT-29 tumor tissue homogenate; assay type: biochemical; settings: for Activation ratio (%) in homogenates from different tumor tissues: Human colon cancer HT-29, 1 mg/ml
Protocol: as §1, §2, §3, §4, §5

[8] = test system: Human ovarian cancer SK-OV-3 tumor tissue homogenate; assay type: biochemical; settings: for Activation ratio (%) in homogenates from different tumor tissues: Human ovarian cancer SK-OV-3, 1 mg/ml
Protocol: as §1, §2, §3, §4, §5

[9] = test system: Human renal cancer OS-RC-2 tumor tissue homogenate; assay type: biochemical; settings: for Activation ratio (%) in homogenates from different tumor tissues: Human renal cancer OS-RC-2, 1 mg/ml
Protocol: as §1, §2, §3, §4, §5

[10] = test system: Human liver cancer Hepg2 tumor tissue homogenate; assay type: biochemical; settings: for Activation ratio (%) in homogenates from different tumor tissues: Human liver cancer Hepg2, 1 mg/ml
Protocol: as §1, §2, §3, §4, §5

[11] = test system: Human breast cancer MDA-MB435 tumor tissue homogenate; assay type: biochemical; settings: for Activation ratio (%) in homogenates from different tumor tissues: Human breast cancer MDA-MB435, 1 mg/ml
Protocol: as §1
(§6) At 37 °C, sample compounds were added into 100 μg acidized human breast cancer (MDA-MB435) tumor tissue homogenates (pH6.0) in a concentration of 1 mg/ml.
as §2, §6, §3, §4, §5

[12] = immunized C57 mice, drugs 13.2 μmol/kg, PDL1 antibody 5 μg/kg, weekly for 4 weeks
[13] = Table 49, immunized C57 mice, D121, drugs 13.2 μmol/kg, PDL1 antibody 5 μg/kg, weekly for 4 weeks
[14] = Table 45, acidized homogenate, Docetaxel release by HPLC
[15] = Table 27, immunized C57 mice, D121 lung tumor, drugs weekly for 4 weeks
[16] = acidized homogenate pH6.0, Paclitaxel release by HPLC

Question: With `COCCOCC(=O)N[C@H](C)C(=O)N[C@H](C)C(=O)N[C@H](CC(N)=O)C(=O)Nc1ccc(COC(=O)N2[C@@H]3CN4C5=C(C(=O)C(N)=C(C)C5=O)[C@H](COC(N)=O)[C@]4(OC)[C@@H]32)cc1` [Compound E1, 2-(2-methoxyethoxy) acetyl-L-Ala-L-Ala-L-Asn-4-amino benzyl mitomycin] as the molecule, how does the “CD8: CD45 (%)” value ([1]; ratio of CD8 positive cells in CD45 positive cells of tumor, flow cytometry, drugs 13.2 μmol/kg, PDL1 antibody 5 μg/kg) read?
Answer: 18.4%

Question: And the “Size of tumor (mm^3) Day 18” value [2, 12]?
Answer: 237.60 ± 358.57 mm^3

Question: And the “inhibitory rate on tumor % Day 18” value [2, 12]?
Answer: 83.27%

Question: And the “Effect together with PDL1-antibody in promoting immunization and treatment, in words” value [2]?
Answer: excellent synergistic effect

Question: What about the “Treatment effects on C57 mice, in words” value [2] of the same molecule?
Answer: greatly improved

Question: What about the “Activation ratio (%) in homogenates from different tumor tissues” value ([3]; 37° C.) of the same molecule?
Answer: 97.4%

Question: And the “Activation ratio (%) in homogenates from different tumor tissues” value ([4]; 37° C.)?
Answer: 78.9%

Question: What about the “Activation ratio (%) in homogenates from different tumor tissues” value ([5]; 37° C.) of the same molecule?
Answer: 74.5%

Question: What about the “Activation ratio (%) in homogenates from different tumor tissues” value ([6]; 37° C.) of the same molecule?
Answer: 89.4%

Question: And the “Activation ratio (%) in homogenates from different tumor tissues” value ([7]; 37° C.)?
Answer: 94.2%

Question: And the “Activation ratio (%) in homogenates from different tumor tissues” value ([8]; 37° C.)?
Answer: 93.5%

Question: And the “Activation ratio (%) in homogenates from different tumor tissues” value ([9]; 37° C.)?
Answer: 99.7%

Question: And the “Activation ratio (%) in homogenates from different tumor tissues” value ([10]; 37° C.)?
Answer: 94.6%

Question: What about the “Activation ratio (%) in homogenates from different tumor tissues” value ([11]; 37° C.) of the same molecule?
Answer: 97.3%

Question: With `COCCOCC(=O)N[C@H](C)C(=O)N[C@H](C)C(=O)N[C@H](CC(N)=O)C(=O)Nc1ccc(COC(=O)OC(C(=O)OC2C[C@@]3(O)[C@@H](OC(=O)c4ccccc4)[C@H]4[C@](C)(C(=O)[C@H](O)C(=C2C)C3(C)C)[C@@H](O)CC2OC[C@]24OC(C)=O)[C@@H](NC(=O)OC(C)(C)C)c2ccccc2)cc1` (stereo partly drawn) [Compound D1, 2-(2-methoxyethoxy) acetyl-L-Ala-L-Ala-L-Asn-4-amino benzyl-Docetaxel] as the molecule, how does the “CD8: CD45 (%)” value ([1]; Table 49, CD8 positive cells in CD45 positive cells of tumor, flow cytometry, drugs 13.2 μmol/kg, PDL1 antibody 5 μg/kg) read?
Answer: 18.5%

Question: And the “Size of tumor (mm^3) Day 18” value [2, 13]?
Answer: 324.45 mm^3

Question: What about the “inhibitory rate on tumor % Day 18” value [2, 13] of the same molecule?
Answer: 77.2%

Question: What about the “Effect together with PDL1-antibody in promoting immunization and treatment, in words” value [2] of the same molecule?
Answer: excellent synergistic effect

Question: What about the “Treatment effects on C57 mice, in words” value [2] of the same molecule?
Answer: greatly improved

Question: What about the “Activation ratio (%) in homogenates from different tumor tissues” value [3, 14] of the same molecule?
Answer: 77.76%

Question: And the “Activation ratio (%) in homogenates from different tumor tissues” value [4, 14]?
Answer: 87.57%

Question: And the “Activation ratio (%) in homogenates from different tumor tissues” value [5, 14]?
Answer: 68.23%

Question: And the “Activation ratio (%) in homogenates from different tumor tissues” value [6, 14]?
Answer: 85.32%

Question: What about the “Activation ratio (%) in homogenates from different tumor tissues” value [7, 14] of the same molecule?
Answer: 71.46%

Question: What about the “Activation ratio (%) in homogenates from different tumor tissues” value [8, 14] of the same molecule?
Answer: 79.56%

Question: And the “Activation ratio (%) in homogenates from different tumor tissues” value [9, 14]?
Answer: 77.76%

Question: What about the “Activation ratio (%) in homogenates from different tumor tissues” value [10, 14] of the same molecule?
Answer: 85.77%

Question: And the “Activation ratio (%) in homogenates from different tumor tissues” value [11, 14]?
Answer: 83.07%

Question: Which results are given for `COCCOCCOCCOCCOCCOCCOCCOCCOCCOCCOCCOCC(=O)NCCCC[C@H](NC(=O)COCCOCCOCCOCCOCCOCCOCCOCCOCCOCCOCCOC)C(=O)N[C@H](C)C(=O)N[C@H](C)C(=O)N[C@H](CC(N)=O)C(=O)Nc1ccc(COC(=O)OC(C(=O)OC2C[C@@]3(O)[C@@H](OC(=O)c4ccccc4)[C@H]4[C@](C)(C(=O)[C@H](OC(C)=O)C(=C2C)C3(C)C)[C@@H](O)CC2OC[C@]24OC(C)=O)[C@@H](NC(=O)c2ccccc2)c2ccccc2)cc1` (stereo partly drawn) [Compound A3]?
Answer: CD8: CD45 (%) ([1]; Table 27, CD8 positive cells in CD45 positive cells of tumor, flow cytometry, immunized C57 mice, D121): 17.3%; Size of tumor (mm^3) Day 18 [2, 15]: 360.393 ± 312.7 mm^3; inhibitory rate on tumor % Day 18 [2, 15]: 78.65%; Treatment effects on C57 mice, in words [2]: greatly improved; Activation ratio (%) in homogenates from different tumor tissues [3, 16]: 84.4%; Activation ratio (%) in homogenates from different tumor tissues [4, 16]: 99.3%; Activation ratio (%) in homogenates from different tumor tissues [5, 16]: 73.2%; Activation ratio (%) in homogenates from different tumor tissues [6, 16]: 94.5%; Activation ratio (%) in homogenates from different tumor tissues [7, 16]: 94.6%; Activation ratio (%) in homogenates from different tumor tissues [8, 16]: 82.8%; Activation ratio (%) in homogenates from different tumor tissues [9, 16]: 89.4%; Activation ratio (%) in homogenates from different tumor tissues [10, 16]: 86.5%; Activation ratio (%) in homogenates from different tumor tissues [11, 16]: 93.4%; activation efficiency (%) ([11]; Table 24, acidized human breast cancer (MDA-MB435) tumor tissue homogenates pH6.0, 1 mg/ml, Paclitaxel release by HPLC): 94.5%

Question: `CCCCCOC(=O)Nc1nc(=O)n([C@@H]2O[C@H](C)[C@@H](OC(=O)OCc3ccc(NC(=O)[C@H](CC(N)=O)NC(=O)[C@H](C)NC(=O)[C@H](C)NC(=O)CCCCCCC(=O)NO)cc3)[C@H]2O)cc1F` [Compound S3, 4-N—(N—(N—(N-(8-(N-hydroxylamino)-1,8-octandioic acid-1-monoacyl)-L-alanyl)-L-alanyl)-L-asparaginyl)-amino benzyl alcohol-capecitabine-carbonic acid diester] was tested. Which “CD8: CD45 (%)” value ([1]; D121 immunized C57 mice, 13.2 μmol/kg, ratio of CD8 positive cells in CD45 positive cells of tumor) did it give?
Answer: 18.4%

Question: And the “Size of tumor (mm^3) Day 18” value ([2]; D121 immunized C57 mice, 13.2 μmol/kg weekly, PDL1 antibody 5 μg/kg where combined)?
Answer: 425.67 ± 126.67 mm^3

Question: And the “Treatment effects on C57 mice, in words” value [2]?
Answer: greatly improved

Question: And the “Activation Efficiencies (%)” value ([3]; Human non-small cell lung cancer A549 tumor tissue homogenate (30 μg/ml), 1 mg/ml compound)?
Answer: 80.7%

Question: And the “Activation Efficiencies (%)” value ([4]; Human prostate cancer PC-3 tumor tissue homogenate (30 μg/ml), 1 mg/ml compound)?
Answer: 98.3%

Question: And the “Activation Efficiencies (%)” value ([5]; Human chronic leukemia K562 tumor tissue homogenate (30 μg/ml), 1 mg/ml compound)?
Answer: 93.2%

Question: What about the “Activation Efficiencies (%)” value ([6]; Human pancreatic cancer Panc-1 tumor tissue homogenate (30 μg/ml), 1 mg/ml compound) of the same molecule?
Answer: 91.6%

Question: What about the “Activation Efficiencies (%)” value ([7]; Human colon cancer HT-29 tumor tissue homogenate (30 μg/ml), 1 mg/ml compound) of the same molecule?
Answer: 81.7%

Question: What about the “Activation Efficiencies (%)” value ([8]; Human ovarian cancer SK-OV-3 tumor tissue homogenate (30 μg/ml), 1 mg/ml compound) of the same molecule?
Answer: 94.3%

Question: What about the “Activation Efficiencies (%)” value ([9]; Human renal cancer OS-RC-2 tumor tissue homogenate (30 μg/ml), 1 mg/ml compound) of the same molecule?
Answer: 67.4%

Question: What about the “Activation Efficiencies (%)” value ([10]; Human liver cancer Hepg2 tumor tissue homogenate (30 μg/ml), 1 mg/ml compound) of the same molecule?
Answer: 94.5%

Question: And the “Activation Efficiencies (%)” value ([11]; Human breast cancer MDA-MB435 tumor tissue homogenate (30 μg/ml), 1 mg/ml compound)?
Answer: 70.1%
